Test results taken from ChEMBL document CHEMBL4699440, “Comprehensive review on the anti-bacterial activity of 1,2,3-triazole hybrids” (Eur J Med Chem, 2019).
Values after ≈ are worked out from the molar mass of the structure shown. Numbered stars: 1 amine (or outer) side, 2 acyl side, 3 side chain; on linkers, the order of the positions; unused ones are H or OH. Square brackets hold non-standard residues; d marks the D form. Peptide text beside a SMILES is read from it. * marks the point of attachment. X1 = CC(C)(C(=O)c1ccc(C(F)(F)F)cc1)C(=O)*; βPro(3R) = O=C([C@@H]1CCN([*:1])C1)[*:2]; Phe(ol) = N[C@H](CO)Cc1ccccc1; Aib = CC(C)(N)C(=O)O

How the values were obtained:
Bacillus subtilis [1] = assay: Antibacterial activity against Bacillus subtilis ATCC 6051 incubated for 24 hrs by broth microdilution method; type: functional
Escherichia coli [2] = assay: Antibacterial activity against Escherichia coli ATCC 25922 incubated for 24 hrs by broth microdilution method; type: functional
Pseudomonas aeruginosa [3] = assay: Antibacterial activity against Pseudomonas aeruginosa ATCC 25619 incubated for 24 hrs by broth microdilution method; type: functional
Staphylococcus aureus [4] = assay: Antibacterial activity against Staphylococcus aureus ATCC 12598 incubated for 24 hrs by broth microdilution method; type: functional
Candida albicans = assay: Antifungal activity against Candida albicans ATCC 2091 incubated for 24 hrs by broth microdilution method; type: functional
Aspergillus niger = assay: Antibacterial activity against Aspergillus niger ATCC 9029 incubated for 24 hrs by broth microdilution method; type: functional
Bacillus cereus = assay: Antibacterial activity against Bacillus cereus; type: functional
Staphylococcus aureus [5] = assay: Antibacterial activity against Staphylococcus aureus; type: functional
KB = assay: Cytotoxicity against human KB cells; type: cell-based; conditions: Homo sapiens, KB
Bacillus subtilis [6] = assay: Antibacterial activity against Bacillus subtilis assessed as inhibition zone at 1 mg/ml measured after overnight incubation by disc diffusion method; type: functional; conditions: read-out: IZ
Staphylococcus aureus [7] = assay: Antibacterial activity against Staphylococcus aureus assessed as inhibition zone at 1 mg/ml measured after overnight incubation by disc diffusion method; type: functional; conditions: read-out: IZ
Pseudomonas aeruginosa [8] = assay: Antibacterial activity against Pseudomonas aeruginosa assessed as inhibition zone at 1 mg/ml measured after overnight incubation by disc diffusion method; type: functional; conditions: read-out: IZ
Escherichia coli [9] = assay: Antibacterial activity against Escherichia coli assessed as inhibition zone at 1 mg/ml measured after overnight incubation by disc diffusion method; type: functional; conditions: read-out: IZ

SMILES | MIC (Bacillus cereus) | MIC (Staphylococcus aureus [5]) | zone of inhibition at 1000 µg/mL (Bacillus subtilis [6]) | zone of inhibition at 1000 µg/mL (Staphylococcus aureus [7]) | zone of inhibition at 1000 µg/mL (Pseudomonas aeruginosa [8]) | zone of inhibition at 1000 µg/mL (Escherichia coli [9]) | also measured
CCOC(=O)c1c(C)nnn1Cc1cc(=O)oc2ccc(OC)cc12 | – | – | – | – | – | – | MIC (Bacillus subtilis [1]): 25 µg/mL (≈ 72.8 µM); MIC (Escherichia coli [2]): 0.2 µg/mL (≈ 0.583 µM); MIC (Pseudomonas aeruginosa [3]): 25 µg/mL (≈ 72.8 µM); MIC (Staphylococcus aureus [4]): 0.2 µg/mL (≈ 0.583 µM); MIC (Candida albicans): 0.2 µg/mL (≈ 0.583 µM); MIC (Aspergillus niger): 0.2 µg/mL (≈ 0.583 µM)
N#Cc1c(N)nnn1Cc1cc(=O)oc2ccc3c(c12)OCO3 | – | – | – | – | – | – | MIC (Bacillus subtilis [1]): 25 µg/mL (≈ 80.3 µM); MIC (Escherichia coli [2]): 0.2 µg/mL (≈ 0.643 µM); MIC (Pseudomonas aeruginosa [3]): 25 µg/mL (≈ 80.3 µM); MIC (Staphylococcus aureus [4]): 0.2 µg/mL (≈ 0.643 µM); MIC (Candida albicans): 0.2 µg/mL (≈ 0.643 µM); MIC (Aspergillus niger): 0.2 µg/mL (≈ 0.643 µM)
CCOC(=O)c1c(C)nnn1Cc1cc(=O)oc2cc(C)ccc12 | – | – | – | – | – | – | MIC (Bacillus subtilis [1]): 25 µg/mL (≈ 76.4 µM); MIC (Escherichia coli [2]): 0.2 µg/mL (≈ 0.611 µM); MIC (Pseudomonas aeruginosa [3]): 25 µg/mL (≈ 76.4 µM); MIC (Staphylococcus aureus [4]): 0.2 µg/mL (≈ 0.611 µM); MIC (Candida albicans): 0.2 µg/mL (≈ 0.611 µM); MIC (Aspergillus niger): 0.2 µg/mL (≈ 0.611 µM)
CC(C)C[C@H](NC(=O)CNC(=O)C(C)(C)NC(=O)[C@@H](NC(=O)C(C)(C)NC(=O)[C@H](CCC(N)=O)NC(=O)[C@H](C)NC(=O)C(C)(C)NC(=O)[C@H](C)NC(=O)C(C)(C)NC(=O)[C@@H]1CCN(C(=O)C(C)(C)n2cc(-c3ccc(F)cc3F)nn2)C1)C(C)C)C(=O)NC(C)(C)C(=O)N1CCC[C@@H]1C(=O)N[C@H](C(=O)NC(C)(C)C(=O)NC(C)(C)C(=O)N[C@@H](CCC(N)=O)C(=O)N[C@@H](CCC(N)=O)C(=O)N[C@H](CO)Cc1ccccc1)C(C)C | 1.56 µg/mL (≈ 0.748 µM) | 1.56 µg/mL (≈ 0.748 µM) | – | – | – | – | IC50 (KB): 2.9 µg/mL (≈ 1.39 µM)
O=[N+]([O-])c1cccc(-n2cc(CNc3ccccc3-c3nnc(-c4ccccc4)o3)nn2)c1 | – | – | 2.5 mm | 2.5 mm | 2.5 mm | 2.5 mm | –
CC(C)C[C@H](NC(=O)CNC(=O)C(C)(C)NC(=O)[C@@H](NC(=O)C(C)(C)NC(=O)[C@H](CCC(N)=O)NC(=O)[C@H](C)NC(=O)C(C)(C)NC(=O)[C@H](C)NC(=O)C(C)(C)NC(=O)[C@@H]1CCN(C(=O)C(C)(C)n2cc(-c3cc(F)cc(F)c3)nn2)C1)C(C)C)C(=O)NC(C)(C)C(=O)N1CCC[C@@H]1C(=O)N[C@H](C(=O)NC(C)(C)C(=O)NC(C)(C)C(=O)N[C@@H](CCC(N)=O)C(=O)N[C@@H](CCC(N)=O)C(=O)N[C@H](CO)Cc1ccccc1)C(C)C | 1.56 µg/mL (≈ 0.748 µM) | 1.56 µg/mL (≈ 0.748 µM) | – | – | – | – | IC50 (KB): 2.9 µg/mL (≈ 1.39 µM)
Clc1cccc(-n2cc(CNc3ccccc3-c3nnc(-c4ccccc4)o3)nn2)c1 | – | – | 2.5 mm | 2.5 mm | 2.5 mm | 2.5 mm | –
c1ccc(Cn2cc(CNc3ccccc3-c3nnc(-c4ccccc4)o3)nn2)cc1 | – | – | 2.5 mm | 2.5 mm | 2.5 mm | 2.5 mm | –
CC(C)C[C@H](NC(=O)CNC(=O)C(C)(C)NC(=O)[C@@H](NC(=O)C(C)(C)NC(=O)[C@H](CCC(N)=O)NC(=O)[C@H](C)NC(=O)C(C)(C)NC(=O)[C@H](C)NC(=O)C(C)(C)NC(=O)[C@@H]1CCN(C(=O)C(C)(C)n2cc(-c3ccccc3)nn2)C1)C(C)C)C(=O)NC(C)(C)C(=O)N1CCC[C@@H]1C(=O)N[C@H](C(=O)NC(C)(C)C(=O)NC(C)(C)C(=O)N[C@@H](CCC(N)=O)C(=O)N[C@@H](CCC(N)=O)C(=O)N[C@H](CO)Cc1ccccc1)C(C)C | 1.56 µg/mL (≈ 0.761 µM) | 1.56 µg/mL (≈ 0.761 µM) | – | – | – | – | IC50 (KB): 2.9 µg/mL (≈ 1.42 µM)
CC1COc2c(N3CCN(C)CC3)c(F)cc3c(=O)c(C(=O)O)cn1c23 (configuration not stated) [OFLOXACIN] | – | – | 2.5 mm | 2.5 mm | 2.5 mm | 2.5 mm | –
c1ccc(-c2nnc(-c3ccccc3NCc3cn(C4CCCCC4)nn3)o2)cc1 | – | – | 2.5 mm | 2.5 mm | 2.5 mm | 2.5 mm | –
Fc1ccccc1-n1cc(CNc2ccccc2-c2nnc(-c3ccccc3)o2)nn1 | – | – | 2.5 mm | 2.5 mm | 2.5 mm | 2.5 mm | –
COc1ccc(-n2cc(CNc3ccccc3-c3nnc(-c4ccccc4)o3)nn2)c([N+](=O)[O-])c1 | – | – | 2.5 mm | 2.5 mm | 2.5 mm | 2.5 mm | –
c1ccc(-c2nnc(-c3ccccc3NCc3cn(-c4ccccc4-c4ccc(-c5nnco5)cc4)nn3)o2)cc1 | – | – | 2.5 mm | 2.5 mm | 2.5 mm | 2.5 mm | –
CC(C)C[C@H](NC(=O)CNC(=O)C(C)(C)NC(=O)[C@@H](NC(=O)C(C)(C)NC(=O)[C@H](CCC(N)=O)NC(=O)[C@H](C)NC(=O)C(C)(C)NC(=O)[C@H](C)NC(=O)C(C)(C)NC(=O)[C@@H]1CCN(C(=O)C(C)(C)C(=O)c2ccc(C(F)(F)F)cc2)C1)C(C)C)C(=O)NC(C)(C)C(=O)N1CCC[C@H]1C(=O)N[C@H](C(=O)NC(C)(C)C(=O)NC(C)(C)C(=O)N[C@@H](CCC(N)=O)C(=O)N[C@@H](CCC(N)=O)C(=O)N[C@H](CO)Cc1ccccc1)C(C)C (X1-[βPro(3R)][Aib]A[Aib]AQ[Aib]V[Aib]GL[Aib]PV[Aib][Aib]QQ[Phe(ol)]) | 12.5 µg/mL (≈ 6.01 µM) | 1.56 µg/mL (≈ 0.751 µM) | – | – | – | – | –

More lines, main results first:

MIC (Bacillus cereus) | MIC (Staphylococcus aureus [5]) | SMILES | zone of inhibition at 1000 µg/mL (Bacillus subtilis [6]) | zone of inhibition at 1000 µg/mL (Staphylococcus aureus [7]) | zone of inhibition at 1000 µg/mL (Pseudomonas aeruginosa [8]) | zone of inhibition at 1000 µg/mL (Escherichia coli [9]) | also measured
1.56 µg/mL (≈ 0.726 µM) | 1.56 µg/mL (≈ 0.726 µM) | CC(C)C[C@H](NC(=O)CNC(=O)C(C)(C)NC(=O)[C@@H](NC(=O)C(C)(C)NC(=O)[C@H](CCC(N)=O)NC(=O)[C@H](C)NC(=O)C(C)(C)NC(=O)[C@H](C)NC(=O)C(C)(C)NC(=O)[C@@H]1CCN(C(=O)C(C)(C)n2cc(-c3cc4ccccc4c4ccccc34)nn2)C1)C(C)C)C(=O)NC(C)(C)C(=O)N1CCC[C@@H]1C(=O)N[C@H](C(=O)NC(C)(C)C(=O)NC(C)(C)C(=O)N[C@@H](CCC(N)=O)C(=O)N[C@@H](CCC(N)=O)C(=O)N[C@H](CO)Cc1ccccc1)C(C)C | – | – | – | – | IC50 (KB): 2.9 µg/mL (≈ 1.35 µM)
1.56 µg/mL (≈ 0.725 µM) | 1.56 µg/mL (≈ 0.725 µM) | CC(C)C[C@H](NC(=O)CNC(=O)C(C)(C)NC(=O)[C@@H](NC(=O)C(C)(C)NC(=O)[C@H](CCC(N)=O)NC(=O)[C@H](C)NC(=O)C(C)(C)NC(=O)[C@H](C)NC(=O)C(C)(C)NC(=O)[C@@H]1CCN(C(=O)C(C)(C)n2cc(-c3ccc(OC(F)(F)F)c(F)c3)nn2)C1)C(C)C)C(=O)NC(C)(C)C(=O)N1CCC[C@@H]1C(=O)N[C@H](C(=O)NC(C)(C)C(=O)NC(C)(C)C(=O)N[C@@H](CCC(N)=O)C(=O)N[C@@H](CCC(N)=O)C(=O)N[C@H](CO)Cc1ccccc1)C(C)C | – | – | – | – | IC50 (KB): 2.9 µg/mL (≈ 1.35 µM)
